Measured values published in patent US6482586B1 (priority 1996, dated 2002).
Read-outs that look alike come from different tables or passages of the source.

Experiments:
XF-498 cells [1] = experiment: Cell sensitization to VT by butyrate treatment; type: cell-based, human; conditions: for effect on XF-498 cell sensitivity to VT1 (in words): cells cultured in 2 mM propionate or capronate
Experimental: Semiconfluent cells in microtiter plates were incubated in triplicates with ten fold VT binding domain dilutions and remaining cells after 72 hr were quantitated by staining with 0.1% crystal violet and measuring the optical density at 570 nm using a microtiter plate reader (31).
(§1) XF-498 astrocytoma, ovarian tumour and vero cell lines were cultured in media containing 2 mM sodium butyrate (or propionate or capronate for astrocytoma cells).

Gb3 in XF-498 cells = type: cell-based, human
Experimental: After trypsinization, cells (˜1×10^6) were washed with PBS three times, resuspended in a minimum volume, and extracted with 20 volumes of chloroform/methanol (C/M) 2:1 by vol. The extract was partitioned against water and the lower phase partitioned again against theoretical upper phase. The combined lower phase was then evaporated, saponified with 1 N NaOH in methanol and glycolipids reextracted as above . The dried lower phase was dissolved in CM 98:2 and separated by silica chromatography(32). The column was washed extensively with chloroform and glycolipid eluted in acetone/methanol (9:1 by vol.). Gb3 present was detected by tlc overlay binding with VT binding domain1 (16).
Aliquots of the glycolipid extract of human tumor samples or of tumor cell lines were separated by TLC {chloroform, methanol, water-65:25:4 (v/v/v)}. The plates were dried and blocked with 1% gelatin in water at 37° C. overnight. They were then washed three times with 50 mM TBS for 5 min and incubated with 0.1 μg/ml toxin for 1 hour at R.T. After further washing with TBS, plates were incubated with mouse monoclonal anti-VT binding domain1 antibody(33) (2 μg/ml) for VT binding domain1 followed by peroxidase-conjugated goat anti-mouse antibody . Finally, the plates were washed with TBS, and toxin binding was visualized with 4-chloro-1-naphthol peroxidase substrate. A similar plate was prepared and sprayed with orcinol for comparison of glycolipid content.

XF-498 cells [2] = experiment: Morphology and growth of treated XF-498 cells; type: cell-based, human; conditions: for effect on morphology of XF-498 cells: compound alone in culture medium
Experimental: as §1
(§2) PPMP(1-phenyl-2-hexadecanoylamino-3-morpholino-1-propanol, Matreya Inc. , Pleasant Gap, Pa.) is a potent inhibitor of glucosylceramide synthesis (36) and thereby prevents the synthesis of most glycolipids. Experiments extablished that 27 μM PPMP was able to inhibit glycosphingolipid synthesis without inducing cell death. XF-498 astrocytoma and vero cells were then incubated at 37° C. with 27 μM PPMP in the presence and absence of 2 mM butyrate for 6-7 days.

Gb3 of XF-498 cells = experiment: HPLC analysis of Gb3 fatty acid composition; type: cell-based, human; conditions: butyrate treated XF-498
XF-498 cells [3] = type: cell-based, human
[4] = tested on: glycosphingolipid synthesis; experiment: Inhibition of glycolipid synthesis; type: cell-based
Experimental: as §2

[5] = XF-498 cells after treatment, VT1 TLC overlay

SMILES	effect on XF-498 cell sensitivity to VT1 (in words) (XF-498 cells [1])	change in slower migrating Gb3 band (Gb3 in XF-498 cells; [5])	effect on morphology of XF-498 cells (XF-498 cells [2])	increase in XF-498 cell sensitivity to VT1 (XF-498 cells [1]; cells cultured in 2 mM sodium butyrate)	fatty acid content of the slow migrating Gb3 species (Gb3 of XF-498 cells)	effect on intracellular routing of VT1 B (XF-498 cells [3])	change in slower migrating Gb3 band (Gb3 in XF-498 cells)	effect on butyrate induced VT1 sensitivity of XF-498 cells (XF-498 cells [1]; 27 μM PPMP with 2 mM butyrate, not shown)	effect on butyrate-induced morphological changes (XF-498 cells [2]; PPMP in presence of butyrate)	concentration able to inhibit glycosphingolipid synthesis without inducing cell death [4]
CCC(=O)O [propionate]	increased to a lesser extent	selectively increased, but to a lesser extent	similar, but less significant, morphological change							
CCCC(=O)[O-].[Na+] [butyrate, sodium butyrate]		dramatic, selective increase	profound effect	5000 fold	markedly increased C16 and decreased C24 fatty acid content	marked change in the intracellular routing				
CCCCCC(=O)O [capronate]	no effect		no effect				no effect			
CCCCCCCCCCCCCCCC(=O)NC(CN1CCOCC1)C(O)c1ccccc1 (stereo not drawn) [PPMP, 1-phenyl-2-hexadecanoylamino-3-morpholino-1-propanol]			no effect					prevented	prevented the butyrate-induced morphological changes	27 µM
